# From patent US5077305A, “Thiazole carboxylic acids and esters” (Bristol-Myers Squibb Co., priority 1990, dated 1991)
# Tested on: human platelet aggregation (ADP-induced)
# Type: cell-based
# Details: human platelet rich plasma; ADP final concentration 0.5 mcg/mL; read-out: Inhibition of Human Platelet Aggregation IC50 Vs ADP
# Procedure: The aggregometer method of Born, C. […] Clin. Med. 1964, 64, 548-599 was used to assess the in vitro activity of the various compounds as to the inhibition of adenosine diphosphate (ADP) and collagen-induced platelet aggregation. The human volunteer donor's arm is cleansed with 70% ethyl alcohol. A sterile 20 ml syringe and needle are used to withdraw 20 ml of blood. The blood is immediately added to a test tube containing 3.8% sodium citrate to prevent clotting (1 part citrate to 9 parts blood).
# Platelet rich plasma (PRP) was separated by centrifugation for 10 minutes at 1000 rpm (140 xg) from citrated (3.8%) human blood. All glassware used for preparation of PRP is silicon treated. ADP in final concentration of 0.5 mcg/mL or 0.05 mL of a collagen suspension prepared according to the method described by Evans, G., et al., J. Exp. Med., 1968, 128, 877-894 was used to induce aggregation. The various compounds tested were dissolved in dimethylsulfoxide (DMSO) so that 5 mcl added to the platelet rich plasma would yield the desired test concentration. Vehicle control trials were done and compared with aggregation induced in platelet rich plasma containing various concentrations of the test compounds. Dose response curves were obtained and Inhibitor Concentration (IC50) values calculated.
smiles,measurement,value
"COC(=O)COc1cccc(CCc2nc(-c3ccccc3)c(-c3ccccc3)s2)c1 [Example 1, Methyl (3-[2-(4,5-diphenyl-2-thiazolyl)ethyl]phenoxy]acetate]",IC50,0.41 µg/mL
"O=C(O)COc1cccc(CCc2nc(-c3ccccc3)c(-c3ccccc3)s2)c1 [Example 2, [3-[2-(4,5-Diphenyl-2-thiazolyl)ethyl]phenoxy]acetic Acid]",IC50,0.36 µg/mL
